Reference: article PMC6540285, “Evaluation of Protein Kinase Inhibitors with PLK4 Cross-Over Potential in a Pre-Clinical Model of Cancer” (International Journal of Molecular Sciences, 2019)

What was measured:
MELK = MELK (Homo sapiens, UniProt Q14680); assay: SelectScreen kinase profiling, ZLYTE; type: biochemical
CDK1/cyclin B = CDK1/cyclin B (Homo sapiens, UniProt P06493); assay: SelectScreen kinase profiling, ZLYTE; type: biochemical
[1] = biological target: CSNK1E (CK1 epsilon) R178C (Homo sapiens, UniProt P49674, R178C); assay: SelectScreen kinase profiling, ZLYTE; type: biochemical
Sequence of CSNK1E (CK1 epsilon) R178C (P49674 whole entry R178C): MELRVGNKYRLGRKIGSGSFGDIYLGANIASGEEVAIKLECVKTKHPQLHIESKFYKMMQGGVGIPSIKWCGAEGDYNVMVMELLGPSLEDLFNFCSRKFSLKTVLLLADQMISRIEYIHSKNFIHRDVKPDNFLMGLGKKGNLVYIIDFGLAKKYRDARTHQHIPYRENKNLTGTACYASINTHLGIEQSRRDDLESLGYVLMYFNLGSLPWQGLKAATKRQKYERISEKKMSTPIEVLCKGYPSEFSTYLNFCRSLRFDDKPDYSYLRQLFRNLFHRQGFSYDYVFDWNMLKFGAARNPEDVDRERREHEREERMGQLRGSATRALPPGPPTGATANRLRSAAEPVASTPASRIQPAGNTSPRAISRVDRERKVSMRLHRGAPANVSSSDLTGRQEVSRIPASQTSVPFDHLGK

NEK1 = NEK1 (Homo sapiens, UniProt Q96PY6); assay: SelectScreen kinase profiling, ZLYTE; type: biochemical; settings: NEK1, 10 µM
ACVR1 (ALK2) = ACVR1 (ALK2) (Homo sapiens, UniProt Q04771); assay: SelectScreen kinase profiling, LanthaScreen binding
Sequence of ACVR1 (ALK2) (Q04771 21-509): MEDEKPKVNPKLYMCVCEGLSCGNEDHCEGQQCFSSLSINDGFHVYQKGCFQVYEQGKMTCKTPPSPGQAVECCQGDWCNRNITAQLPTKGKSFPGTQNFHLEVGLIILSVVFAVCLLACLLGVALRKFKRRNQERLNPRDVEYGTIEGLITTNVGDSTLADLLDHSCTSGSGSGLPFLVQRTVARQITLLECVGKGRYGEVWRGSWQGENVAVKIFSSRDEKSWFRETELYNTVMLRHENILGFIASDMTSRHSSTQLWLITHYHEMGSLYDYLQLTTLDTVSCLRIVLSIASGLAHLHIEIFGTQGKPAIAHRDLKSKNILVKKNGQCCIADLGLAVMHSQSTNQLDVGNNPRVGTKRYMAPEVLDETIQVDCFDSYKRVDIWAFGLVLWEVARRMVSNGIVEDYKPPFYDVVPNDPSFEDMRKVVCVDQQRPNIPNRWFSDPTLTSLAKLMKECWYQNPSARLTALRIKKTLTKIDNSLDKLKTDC

PEAK1 = PEAK1 (Homo sapiens, UniProt Q9H792); assay: SelectScreen kinase profiling, ZLYTE; type: biochemical; settings: PEAK1, 10 µM
PRKACG (PRKAC gamma) = PRKACG (PRKAC gamma) (Homo sapiens, UniProt P22612); assay: SelectScreen kinase profiling, LanthaScreen binding
BRAF = BRAF (Homo sapiens, UniProt P15056); assay: SelectScreen kinase profiling, ZLYTE; type: biochemical
PIM1 = PIM1 (Homo sapiens, UniProt P11309); assay: SelectScreen kinase profiling, ZLYTE; type: biochemical; settings: PIM1, 10 µM
TEK (TIE2) Y1108F = TEK (TIE2) Y1108F (Homo sapiens, UniProt Q02763, Y1108F); assay: SelectScreen kinase profiling, LanthaScreen binding
ACVR1 (ALK2) R206H = ACVR1 (ALK2) R206H (Homo sapiens, UniProt Q04771, R206H); assay: as above
Sequence of ACVR1 (ALK2) R206H (Q04771 21-509 R206H): as the sequence (Q04771 21-509) above, with R186H counted along it

SGK2 = SGK2 (Homo sapiens, UniProt Q9HBY8); assay: SelectScreen kinase profiling, ZLYTE; type: biochemical; settings: SGK2, 10 µM
MAPK10 (JNK3) = MAPK10 (JNK3) (Homo sapiens, UniProt P53779); assay: SelectScreen kinase profiling, LanthaScreen binding
PKN2 (PRK2) = PKN2 (PRK2) (Homo sapiens, UniProt Q16513); assay: as above
MAPK15 (ERK7) = MAPK15 (ERK7) (Homo sapiens, UniProt Q8TD08); assay: as above
FGFR1 V561M = FGFR1 V561M (Homo sapiens, UniProt P11362, V561M); assay: as above
CDC42 BPB (MRCKB) = CDC42 BPB (MRCKB) (Homo sapiens, UniProt Q9Y5S2); assay: SelectScreen kinase profiling, ZLYTE; type: biochemical
MKNK1 (MNK1) = MKNK1 (MNK1) (Homo sapiens, UniProt Q9BUB5); assay: SelectScreen kinase profiling, ZLYTE; type: biochemical
SPHK2 = SPHK2 (Homo sapiens, UniProt Q9NRA0); assay: SelectScreen kinase profiling, Adapta; type: biochemical; settings: SPHK2, 10 µM
Sequence of SPHK2 (Q9NRA0 whole entry): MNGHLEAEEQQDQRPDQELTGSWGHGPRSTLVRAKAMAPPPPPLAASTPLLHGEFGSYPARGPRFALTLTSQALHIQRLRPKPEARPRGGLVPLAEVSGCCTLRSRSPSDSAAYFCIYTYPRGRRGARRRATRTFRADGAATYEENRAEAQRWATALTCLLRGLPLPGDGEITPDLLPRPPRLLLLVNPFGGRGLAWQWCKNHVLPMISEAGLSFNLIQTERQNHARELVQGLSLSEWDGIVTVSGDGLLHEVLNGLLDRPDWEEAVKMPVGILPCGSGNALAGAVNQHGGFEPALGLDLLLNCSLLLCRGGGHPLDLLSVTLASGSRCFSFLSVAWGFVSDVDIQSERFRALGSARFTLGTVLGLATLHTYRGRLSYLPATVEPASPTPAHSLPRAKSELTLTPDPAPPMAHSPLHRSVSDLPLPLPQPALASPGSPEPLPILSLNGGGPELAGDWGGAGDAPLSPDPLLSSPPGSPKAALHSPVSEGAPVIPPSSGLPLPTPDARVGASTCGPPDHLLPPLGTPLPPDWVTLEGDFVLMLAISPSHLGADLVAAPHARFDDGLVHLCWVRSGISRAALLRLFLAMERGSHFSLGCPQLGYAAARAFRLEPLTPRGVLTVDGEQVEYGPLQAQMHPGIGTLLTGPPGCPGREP

AMPK (A1/B1/G3) = AMPK (A1/B1/G3) (Homo sapiens, UniProt Q13131); assay: SelectScreen kinase profiling, LanthaScreen binding
MAP2K2 (MEK2) = MAP2K2 (MEK2) (Homo sapiens, UniProt P36507); assay: as above
CHEK2 (CHK2) = CHEK2 (CHK2) (Homo sapiens, UniProt O96017); assay: SelectScreen kinase profiling, ZLYTE; type: biochemical
FYN A = FYN A (Homo sapiens, UniProt P06241); assay: SelectScreen kinase profiling, LanthaScreen binding
Sequence of FYN A (P06241 whole entry): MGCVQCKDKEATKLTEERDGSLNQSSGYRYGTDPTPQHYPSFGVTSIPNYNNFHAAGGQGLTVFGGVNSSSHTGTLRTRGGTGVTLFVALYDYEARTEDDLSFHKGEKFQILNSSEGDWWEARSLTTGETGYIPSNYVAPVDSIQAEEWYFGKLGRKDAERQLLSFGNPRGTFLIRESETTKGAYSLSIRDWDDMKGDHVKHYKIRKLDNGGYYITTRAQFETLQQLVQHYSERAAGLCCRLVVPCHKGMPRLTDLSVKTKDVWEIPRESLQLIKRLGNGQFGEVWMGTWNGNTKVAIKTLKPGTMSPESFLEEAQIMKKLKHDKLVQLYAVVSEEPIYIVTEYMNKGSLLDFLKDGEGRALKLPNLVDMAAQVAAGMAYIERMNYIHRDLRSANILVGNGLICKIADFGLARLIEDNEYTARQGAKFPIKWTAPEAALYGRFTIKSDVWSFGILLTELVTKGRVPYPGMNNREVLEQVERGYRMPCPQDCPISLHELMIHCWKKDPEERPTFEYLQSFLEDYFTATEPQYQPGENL

KIT D816V = KIT D816V (Homo sapiens, UniProt P10721, D816V); assay: as above
DAPK1 = DAPK1 (Homo sapiens, UniProt P53355); assay: SelectScreen kinase profiling, Adapta; type: biochemical; settings: DAPK1, 10 µM
MARK4 = MARK4 (Homo sapiens, UniProt Q96L34); assay: SelectScreen kinase profiling, ZLYTE; type: biochemical; settings: MARK4, 10 µM
Sequence of MARK4 (Q96L34 whole entry): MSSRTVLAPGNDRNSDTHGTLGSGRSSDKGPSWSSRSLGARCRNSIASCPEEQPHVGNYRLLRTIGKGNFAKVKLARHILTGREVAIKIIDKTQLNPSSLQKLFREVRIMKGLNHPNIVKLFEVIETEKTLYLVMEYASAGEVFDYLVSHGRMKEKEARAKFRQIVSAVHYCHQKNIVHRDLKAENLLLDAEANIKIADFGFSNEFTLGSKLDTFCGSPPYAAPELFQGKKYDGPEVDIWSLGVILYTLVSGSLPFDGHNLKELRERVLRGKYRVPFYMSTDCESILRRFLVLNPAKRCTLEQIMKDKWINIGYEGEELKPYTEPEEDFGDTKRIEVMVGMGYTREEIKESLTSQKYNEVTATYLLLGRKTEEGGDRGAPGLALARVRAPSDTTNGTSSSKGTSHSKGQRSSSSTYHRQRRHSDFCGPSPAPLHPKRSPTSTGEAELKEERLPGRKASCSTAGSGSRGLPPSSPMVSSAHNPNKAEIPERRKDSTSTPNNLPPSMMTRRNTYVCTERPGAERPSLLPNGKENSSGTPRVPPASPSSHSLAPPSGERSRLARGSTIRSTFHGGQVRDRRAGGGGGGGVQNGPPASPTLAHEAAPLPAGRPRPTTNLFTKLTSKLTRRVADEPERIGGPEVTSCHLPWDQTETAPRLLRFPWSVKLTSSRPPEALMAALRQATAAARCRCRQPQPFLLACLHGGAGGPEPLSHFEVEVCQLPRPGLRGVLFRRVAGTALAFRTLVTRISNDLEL

STK22B (TSSK2) = STK22B (TSSK2) (Homo sapiens, UniProt Q96PF2); assay: SelectScreen kinase profiling, ZLYTE; type: biochemical
CDK11/cyclin C = CDK11/cyclin C (Homo sapiens, UniProt Q9BWU1); assay: SelectScreen kinase profiling, LanthaScreen binding
NLK = NLK (Homo sapiens, UniProt Q9UBE8); assay: as above
EPHA2 = EPHA2 (Homo sapiens, UniProt P29317); assay: SelectScreen kinase profiling, ZLYTE; settings: read-out: % Inhibition Avg
RET G691S = RET G691S (Homo sapiens, UniProt P07949, G691S); assay: SelectScreen kinase profiling, LanthaScreen binding
FLT3 = FLT3 (Homo sapiens, UniProt P36888); assay: SelectScreen kinase profiling, ZLYTE; type: biochemical; settings: FLT3, 10 µM
Sequence of FLT3 (P36888 27-993): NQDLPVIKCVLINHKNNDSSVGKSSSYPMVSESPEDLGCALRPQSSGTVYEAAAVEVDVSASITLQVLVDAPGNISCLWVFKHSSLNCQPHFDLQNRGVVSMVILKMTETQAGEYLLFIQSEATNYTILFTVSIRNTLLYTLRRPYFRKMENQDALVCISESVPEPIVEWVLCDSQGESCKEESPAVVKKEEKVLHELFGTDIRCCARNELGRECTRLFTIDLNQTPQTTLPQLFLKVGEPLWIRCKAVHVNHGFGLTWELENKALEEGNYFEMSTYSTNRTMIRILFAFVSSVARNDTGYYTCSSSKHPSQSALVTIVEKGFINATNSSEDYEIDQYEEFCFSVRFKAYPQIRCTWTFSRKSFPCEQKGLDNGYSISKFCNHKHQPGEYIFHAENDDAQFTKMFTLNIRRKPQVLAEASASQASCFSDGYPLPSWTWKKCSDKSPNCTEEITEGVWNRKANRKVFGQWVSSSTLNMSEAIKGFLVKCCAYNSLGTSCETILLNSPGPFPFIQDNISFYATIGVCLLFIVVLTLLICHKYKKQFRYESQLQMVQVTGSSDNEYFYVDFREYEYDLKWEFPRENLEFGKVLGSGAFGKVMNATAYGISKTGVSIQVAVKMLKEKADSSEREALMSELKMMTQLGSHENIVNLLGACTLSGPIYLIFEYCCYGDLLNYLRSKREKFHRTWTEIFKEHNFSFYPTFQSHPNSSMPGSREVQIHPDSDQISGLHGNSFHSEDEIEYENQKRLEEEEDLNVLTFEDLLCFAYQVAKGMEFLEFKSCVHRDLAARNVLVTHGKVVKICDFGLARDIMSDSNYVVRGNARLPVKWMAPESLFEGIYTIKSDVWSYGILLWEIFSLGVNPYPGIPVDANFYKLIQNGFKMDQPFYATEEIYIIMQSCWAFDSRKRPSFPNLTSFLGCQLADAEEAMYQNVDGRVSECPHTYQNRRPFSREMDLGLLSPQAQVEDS

SPHK1 = SPHK1 (Homo sapiens, UniProt Q9NYA1); assay: SelectScreen kinase profiling, Adapta; type: biochemical; settings: SPHK1, 10 µM
CAMK4 (CaMKIV) = CAMK4 (CaMKIV) (Homo sapiens, UniProt Q16566); assay: SelectScreen kinase profiling, ZLYTE; type: biochemical
SNF1LK2 = SNF1LK2 (Homo sapiens, UniProt Q9H0K1); assay: SelectScreen kinase profiling, ZLYTE; type: biochemical; settings: SNF1LK2, 10 µM
ROS1 = ROS1 (Homo sapiens, UniProt P08922); assay: SelectScreen kinase profiling, ZLYTE; type: biochemical; settings: ROS1, 10 µM
MAPK1 (ERK2) = MAPK1 (ERK2) (Homo sapiens, UniProt P28482); assay: SelectScreen kinase profiling, ZLYTE; type: biochemical
PASK = PASK (Homo sapiens, UniProt Q96RG2); assay: SelectScreen kinase profiling, ZLYTE; type: biochemical
MAP3K9 (MLK1) = MAP3K9 (MLK1) (Homo sapiens, UniProt P80192); assay: SelectScreen kinase profiling, ZLYTE; type: biochemical
Sequence of MAP3K9 (MLK1) (P80192 whole entry): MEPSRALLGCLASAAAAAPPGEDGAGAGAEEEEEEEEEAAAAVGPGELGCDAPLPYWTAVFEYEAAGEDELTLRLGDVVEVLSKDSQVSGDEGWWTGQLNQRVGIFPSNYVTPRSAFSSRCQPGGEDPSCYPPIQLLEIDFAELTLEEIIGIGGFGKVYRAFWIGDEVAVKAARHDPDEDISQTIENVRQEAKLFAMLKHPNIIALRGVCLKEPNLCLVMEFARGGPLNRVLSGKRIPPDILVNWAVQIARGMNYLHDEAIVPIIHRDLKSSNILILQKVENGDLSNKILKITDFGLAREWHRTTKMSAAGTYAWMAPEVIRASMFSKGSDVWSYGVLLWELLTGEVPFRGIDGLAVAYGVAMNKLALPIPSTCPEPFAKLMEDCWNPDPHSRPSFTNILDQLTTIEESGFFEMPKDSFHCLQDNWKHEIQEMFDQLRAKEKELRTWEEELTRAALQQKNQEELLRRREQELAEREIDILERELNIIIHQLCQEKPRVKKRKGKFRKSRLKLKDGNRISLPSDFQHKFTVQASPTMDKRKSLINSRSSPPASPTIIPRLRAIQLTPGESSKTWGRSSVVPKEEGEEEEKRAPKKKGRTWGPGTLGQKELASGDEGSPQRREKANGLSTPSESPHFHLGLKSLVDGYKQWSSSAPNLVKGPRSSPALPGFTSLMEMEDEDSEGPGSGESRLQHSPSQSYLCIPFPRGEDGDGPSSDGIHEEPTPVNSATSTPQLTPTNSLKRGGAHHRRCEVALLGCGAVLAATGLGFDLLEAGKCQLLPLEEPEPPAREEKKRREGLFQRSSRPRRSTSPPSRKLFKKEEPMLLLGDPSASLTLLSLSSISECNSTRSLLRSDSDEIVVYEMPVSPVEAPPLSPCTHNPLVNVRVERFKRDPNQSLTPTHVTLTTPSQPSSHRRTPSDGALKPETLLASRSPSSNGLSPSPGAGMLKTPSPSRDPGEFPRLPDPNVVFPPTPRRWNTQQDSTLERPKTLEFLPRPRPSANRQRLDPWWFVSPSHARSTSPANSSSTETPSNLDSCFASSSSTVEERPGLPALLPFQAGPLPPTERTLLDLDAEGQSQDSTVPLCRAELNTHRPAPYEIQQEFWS

DAPK2 = DAPK2 (Homo sapiens, UniProt Q9UIK4); assay: SelectScreen kinase profiling, LanthaScreen binding; settings: DAPK2, 10 µM

Compound `O=C(c1ccc(/C=C/c2n[nH]c3ccccc23)cc1)N1CCNCC1` [KW-2449] has an inhibition at 10 µM (MELK) of 101%, an inhibition at 10 µM (CDK1/cyclin B) of 88% and an inhibition at 10 µM [1] of 71%. For the same compound, the inhibition at 10 µM (NEK1) was 67%, the inhibition at 10 µM (ACVR1 (ALK2)) was 94% and the inhibition at 10 µM (PEAK1) was 91%. The inhibition at 10 µM (PRKACG (PRKAC gamma)) was 18%, the inhibition at 10 µM (BRAF) was 67% and the inhibition at 10 µM (PIM1) was 42%. It also gave an inhibition at 10 µM (TEK (TIE2) Y1108F) of 72%, an inhibition at 10 µM (ACVR1 (ALK2) R206H) of 69% and an inhibition at 10 µM (SGK2) of 95%. For the same compound, the inhibition at 10 µM (MAPK10 (JNK3)) was 88%, the inhibition at 10 µM (PKN2 (PRK2)) was 65% and the inhibition at 10 µM (MAPK15 (ERK7)) was -49%. For the same compound, the inhibition at 10 µM (FGFR1 V561M) was 30%, the inhibition at 10 µM (CDC42 BPB (MRCKB)) was 27% and the inhibition at 10 µM (MKNK1 (MNK1)) was 52%. For the same compound, the inhibition at 10 µM (SPHK2) was 7%, the inhibition at 10 µM (AMPK (A1/B1/G3)) was 71% and the inhibition at 10 µM (MAP2K2 (MEK2)) was 73%. The inhibition at 10 µM (CHEK2 (CHK2)) was 100%, the inhibition at 10 µM (FYN A) was 72% and the inhibition at 10 µM (KIT D816V) was 40%. It also gave an inhibition at 10 µM (DAPK1) of 90%, an inhibition at 10 µM (MARK4) of 101% and an inhibition at 10 µM (STK22B (TSSK2)) of 74%. For the same compound, the inhibition at 10 µM (CDK11/cyclin C) was 53%, the inhibition at 10 µM (NLK) was -2% and the inhibition at 10 µM (EPHA2) was 98%. It also gave an inhibition at 10 µM (RET G691S) of -30%, an inhibition at 10 µM (FLT3) of 100% and an inhibition at 10 µM (SPHK1) of 17%. For the same compound, the inhibition at 10 µM (CAMK4 (CaMKIV)) was 52%, the inhibition at 10 µM (SNF1LK2) was 97% and the inhibition at 10 µM (ROS1) was 98%. For the same compound, the inhibition at 10 µM (MAPK1 (ERK2)) was 45%, the inhibition at 10 µM (PASK) was 10% and the inhibition at 10 µM (MAP3K9 (MLK1)) was 102%. It also gave an inhibition at 10 µM (DAPK2) of 64%.
